Measurements as given in patent EP1632557B1, “Novel alkaline cellulases” (Novozymes A/S, priority 1994, dated 1995).

Assays:
[1] = target: T1, EG I' from Fusarium oxysporum (Figure 4) (Fusarium oxysporum, UniProt P46237); assay: Cellulase activity on cellotriose (coupled glucose oxidase/peroxidase/ABTS assay); conditions: pH 8,5 and 40°C; calculated from a Lineweaver-Burk plot
T1 sequence (P46237 19-429): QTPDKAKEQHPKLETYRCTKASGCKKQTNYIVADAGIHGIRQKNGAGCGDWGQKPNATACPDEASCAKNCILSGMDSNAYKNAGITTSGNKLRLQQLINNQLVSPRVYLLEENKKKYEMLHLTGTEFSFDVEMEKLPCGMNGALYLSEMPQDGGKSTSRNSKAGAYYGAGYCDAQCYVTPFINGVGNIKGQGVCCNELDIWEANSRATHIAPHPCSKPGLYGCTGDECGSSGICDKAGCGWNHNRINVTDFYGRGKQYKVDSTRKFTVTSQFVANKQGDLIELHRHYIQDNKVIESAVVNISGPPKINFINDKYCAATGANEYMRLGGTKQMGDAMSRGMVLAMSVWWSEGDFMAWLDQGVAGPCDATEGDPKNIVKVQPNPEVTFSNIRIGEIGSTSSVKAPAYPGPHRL

[2] = substrate: OC[C@H]1O[C@@H](O[C@H]2[C@H](O)[C@@H](O)[C@H](O[C@H]3[C@H](O)[C@@H](O)C(O)O[C@@H]3CO)O[C@@H]2CO)[C@H](O)[C@@H](O)[C@@H]1O; assay: purified protein, by the assay type; conditions: other: substrate cellotriose, pH 8,5 and 40°C, calculated from a Lineweaver-Burk plot, pH 8.5

| catalytic activity on cellotriose (Kcat) [1] | Molecule | Km [2] |
| --- | --- | --- |
| 5,5 pr. sec | OC[C@H]1O[C@@H](O[C@H]2[C@H](O)[C@@H](O)[C@H](O[C@H]3[C@H](O)[C@@H](O)C(O)O[C@@H]3CO)O[C@@H]2CO)[C@H](O)[C@@H](O)[C@@H]1O (some centres unmarked) [cellotriose] |  |
|  | EG I' from Fusarium oxysporum (Figure 4) (Fusarium oxysporum) (protein) QTPDKAKEQHPKLETYRCTKASGCKKQTNYIVADAGIHGIRQKNGAGCGDWGQKPNATACPDEASCAKNCILSGMDSNAYKNAGITTSGNKLRLQQLINNQLVSPRVYLLEENKKKYEMLHLTGTEFSFDVEMEKLPCGMNGALYLSEMPQDGGKSTSRNSKAGAYYGAGYCDAQCYVTPFINGVGNIKGQGVCCNELDIWEANSRATHIAPHPCSKPGLYGCTGDECGSSGICDKAGCGWNHNRINVTDFYGRGKQYKVDSTRKFTVTSQFVANKQGDLIELHRHYIQDNKVIESAVVNISGPPKINFINDKYCAATGANEYMRLGGTKQMGDAMSRGMVLAMSVWWSEGDFMAWLDQGVAGPCDATEGDPKNIVKVQPNPEVTFSNIRIGEIGSTSSVKAPAYPGPHRL | 500 µM |
